Results published in patent EP1129352B1 (priority 1998, dated 2000).
Read-outs that look alike come from different tables or passages of the source. Numbered stars: 1 amine (or outer) side, 2 acyl side, 3 side chain; on linkers, the order of the positions; unused ones are H or OH. Bridge positions count the residues as written; N and C are the ends. Square brackets hold non-standard residues; d marks the D form. Peptide text beside a SMILES is read from it. Adda = CO[C@@H](Cc1ccccc1)[C@@H](C)/C=C(C)/C=C/[C@H](N[*:1])[C@H](C)C(=O)[*:2]; dAsp(3S-Me) = C[C@H](C(=O)[*:3])[C@@H](N[*:1])C(=O)[*:2]; d(γGlu) = O=C(O)[C@@H](CCC(=O)[*:2])N[*:1]; NMeDha = C=C(NC)C(=O)O

What was measured:
[1] = biological target: T1, protein phosphatase 2A (Homo sapiens, UniProt P67775); test: biochemical; assay type: binding
T1 construct: purchased Upstate Biotechnology (Lake Placid, NY)
T1 sequence (P67775 whole entry): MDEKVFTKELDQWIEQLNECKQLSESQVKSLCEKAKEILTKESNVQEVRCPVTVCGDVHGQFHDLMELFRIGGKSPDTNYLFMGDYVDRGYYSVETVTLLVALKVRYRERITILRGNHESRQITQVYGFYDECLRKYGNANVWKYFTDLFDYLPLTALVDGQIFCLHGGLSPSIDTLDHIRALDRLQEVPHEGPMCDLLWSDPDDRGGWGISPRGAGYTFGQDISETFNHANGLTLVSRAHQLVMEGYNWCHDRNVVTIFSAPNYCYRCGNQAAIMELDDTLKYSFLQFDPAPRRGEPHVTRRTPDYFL

[2] = biological target: T1, protein phosphatase 2A; test: biochemical; assay type: biochemical
[3] = read-out: % activity Competitive binding assay
[4] = read-out: % activity Protein phosphatase assay
[5] = 0.4%, preincubated 30 minutes on ice, relative to control, ± SEM

Nc1ncnc2c1ncn2[C@@H]1O[C@H](COP(=O)(O)OP(=O)(O)OP(=O)(O)O)[C@@H](O)[C@H]1O [ATP]
activity at 500 µM [1, 3]: 102 ± 1.7%
activity at 2000 µM [1, 3]: 103.3 ± 0.2%
activity at 500 µM [2, 4]: 29.8 ± 5.6%
activity at 2000 µM [2, 4]: 9.8 ± 3.4%

C[C@H](CCC(=O)NCCC[N+](C)(C)CCCS(=O)(=O)[O-])[C@H]1CC[C@H]2[C@@H]3[C@H](O)C[C@@H]4C[C@H](O)CC[C@]4(C)[C@H]3C[C@H](O)[C@]12C [CHAPS]
% activity Competitive binding assay [1]: 90.9 ± 9.9%
% activity Protein phosphatase assay [2]: 138.0 ± 34.4%

C[S+](C)[O-] [DMSO, dimethyl sulfoxide]
% activity Competitive binding assay [1]: 72.8 ± 2.3%
% activity Protein phosphatase assay [2]: 97.9 ± 3.3%

CO [MeOH]
% activity Competitive binding assay ([1]; 10%): 73.9 ± 0.5%
% activity Protein phosphatase assay ([2]; 10%, preincubated 30 minutes on ice, relative to control, ± SEM): 87.4 ± 4.1%

[Cl-].[Na+] [NaCl]
% activity Competitive binding assay [1]: 41.2 ± 0.7%
% activity Protein phosphatase assay [2]: 44.4 ± 1.6%

[F-].[Na+] [NaF]
% activity Competitive binding assay ([1]; 5 mM): 102.0 ± 3.3%
% activity Competitive binding assay ([1]; 50 mM): 101.5 ± 1.9%
% activity Protein phosphatase assay ([2]; 5 mM, preincubated 30 minutes on ice, relative to control, ± SEM): 62.6 ± 0.4%
% activity Protein phosphatase assay ([2]; 50 mM, preincubated 30 minutes on ice, relative to control, ± SEM): 7.7 ± 1.4%

O=P([O-])([O-])OP(=O)([O-])[O-].[Na+].[Na+].[Na+].[Na+] [NaPPi]
% activity Competitive binding assay ([1]; 0.05 mM): 101.4 ± 4.1%
% activity Protein phosphatase assay ([2]; 0.05 mM, preincubated 30 minutes on ice, relative to control, ± SEM): 14.2 ± 1.2%

CC#N [acetonitrile]
% activity Competitive binding assay [1]: 90.4 ± 5.4%
% activity Protein phosphatase assay [2]: 88.2 ± 2.7%

COC[C@@H]([C@H](O)[C@H](O)C(=O)NCC[C@H](C)c1nc(/C=C/C[C@@H]2O[C@]3(C[C@@H](O)[C@@H]2C)O[C@H]([C@H](C[C@H](O)[C@H](C)[C@H](O)[C@H](C)/C=C(C)/C(C)=C/C=C/C(C)=C\C#N)OC)[C@H](OP(=O)(O)O)C3(C)C)co1)N(C)C [calyculin A, reference compound]
IC50 ([1]; read-out: IC50): 0.251 nM

C=C1C(=O)N[C@H](C)C(=O)N[C@@H](CC(C)C)C(=O)N[C@@H](C(=O)O)[C@H](C)C(=O)N[C@@H](CCCNC(=N)N)C(=O)N[C@@H](/C=C/C(C)=C/[C@H](C)[C@H](Cc2ccccc2)OC)[C@H](C)C(=O)N[C@@H](C(=O)O)CCC(=O)N1C [microcystin-LR, reference compound] (R[Adda][d(γGlu)][NMeDha][dA]L[dAsp(3S-Me)]-OH; lactam N-7)
IC50 ([1]; read-out: IC50): 0.017 nM

C/C=C1/C(=O)N[C@@H](C(=O)O)[C@H](C)C(=O)N[C@@H](CCCNC(=N)N)C(=O)N[C@@H](/C=C/C(C)=C/[C@H](C)[C@H](Cc2ccccc2)OC)[C@H](C)C(=O)N[C@@H](C(=O)O)CCC(=O)N1C [nodularin, reference compound]
IC50 ([1]; read-out: IC50): 0.015 nM

C=C1[C@@H](O)[C@@H]2O[C@]3(CC[C@H](/C=C/[C@@H](C)[C@@H]4CC(C)=C[C@@]5(O[C@H](C[C@@](C)(O)C(=O)O)CC[C@H]5O)O4)O3)CC[C@H]2O[C@@H]1[C@@H](O)C[C@H](C)[C@H]1O[C@@]2(CCCCO2)CC[C@H]1C [okadaic acid, reference compound]
IC50 [1]: 0.1 nM

CO[C@H]([C@H](O)CC(=O)[C@@H](C)[C@@H](O)CC[C@@H](C)[C@@H]1O[C@]2(CC[C@@H](C)[C@H](CC[C@H](C)C(C)=O)O2)CC[C@@H]1C)[C@H](OC(=O)C[C@@H](O)C1=C(C)C(=O)OC1=O)C(C)C [tautomycin, reference compound]
IC50 [1]: 0.562 nM

Nonidet P-40
% activity Competitive binding assay ([1]; 0.4%): 106.0 ± 2.0%
% activity Protein phosphatase assay [2, 5]: 61.1 ± 1.3%

Triton X-100
% activity Competitive binding assay ([1]; 0.4%): 122.3 ± 1.0%
% activity Protein phosphatase assay [2, 5]: 60.2 ± 5.7%

microcystin-YR [reference compound]
IC50 ([1]; read-out: IC50): 0.075 nM
